# What was measured:
# [1] = tested on: NK cell lysis of Raji cells; test: Rituximab ADCC 51Cr release assay, Raji targets; format: cell-based, human
# Source text: Cell culture conditions were as follows. […] The HER18 cells were maintained in DEM supplemented with fetal bovine serum, penicillin-streptomycin and. Prior to assay, HER18 cells were harvested using trypsin-EDTA, washed with phosphate-buffered saline (PBS) containing 5% serum and viable cells were counted. For culture of primary target cells, peripheral blood from CLL patients was subject to density centrifugation to obtain peripheral blood mononuclear cells (PBMC). Cell preparations were washed and then subject to positive selection of CD5^+CD19^+ CLL cells using magnetic beads (MACS, Miltenyi Biotech). Cell preparations were used fresh after selection. NK cells from CLL patients and healthy volunteers were enriched from peripheral blood collected in sodium citrate anticoagulant tubes and then subject to density centrifugation. Removal of non NK cells was performed using negative selection by MACS separation. Freshly isolated NK cells were washed three times, enumerated, and then used immediately for ADCC assays.
# ADCC assays were performed as follows. Briefly, target cells (Raji or primary CLL) were labeled by incubation at 37° C. with 100 μCi ^51Cr for 4 hours prior to co-culture with NK cells. Cells were washed, enumerated, and then added in triplicate to prepared 96-well plates containing treated NK cells at an effector:target (E:T) ratio of 25:1. […] Cultures were incubated at 37° C. for 4 hours, and then centrifuged. Supernatants were harvested and ^51Cr release was measured by liquid scintillation counting. All experiments were performed in triplicate.
# [2] = tested on: human platelet-mediated thrombosis; conditions: VWF HA1, mouse (infused with human platelets), in vivo, 2 min
# Experimental: Injury to the vessel wall of arterioles ([…] diameter) was performed using a pulsed nitrogen dye laser (440 nm, Photonic Instruments) applied through a 20× water-immersion Olympus objective (LUMPlanF1, 0.5 numerical aperture (NA)) of a Zeiss Axiotech vario microscope. […] The extent of thrombus formation was assessed for 2 minutes after injury and the area (μm^2) of coverage determined (Image IQ, Andor Technology).
# The BTK inhibitor-treated human platelets were fluorescently labeled and infused continuously through a catheter inserted into the femoral artery.
# peripheral blood B cell = conditions: doses from 0.001-100 mg/kg, two experiments; cited from earlier work
# Raji cell line = test: Antibody-dependent NK cell-mediated cytotoxicity, chromium release, Raji cell line; format: cell-based; conditions: 1 μM, 4 hours, variable rituximab, effector:target 25:1
# CD8+ T cell [3] = test: Cytotoxicity assay for CD8+ T cell function; format: cell-based; conditions: relative to vehicle
# Source text: FIG. 38 illustrates the results of the cytotoxicity assay for CD8^+ T cell function.
# CD8+ T cell [4] = test: IFN-γ level measurements for CD8+ T cell function; format: cell-based; conditions: relative to vehicle
# Source text: FIG. 39 illustrates the results of IFN-γ level measurements for CD8^+ T cell function.
# [5] = tested on: GPVI platelet aggregation; test: GPVI platelet aggregation studies; format: cell-based; conditions: read-out: IC50, GPVI platelet aggregation
# Th17 and Treg cells = test: Th17 and Treg development of CD4+ T cells under skewing cytokines; format: cell-based
# Experimental: Enriched CD4^+ T cells are plated on 24-well culture dishes that have been precoated 2 hr with 250 μL anti-TCRβ (0.5 μg/mL) plus anti-CD28 (5 μg/mL) at 37° C. in PBS. The cells are then supplemented with media containing BTK inhibitors along with the skewing cytokines as indicated in the following. The Th17 and Treg cultures are grown for 4 days before analysis. The cells are maintained for an additional 3 days with skewing cytokines (Th17; 20 ng/mL IL-6, 0.5 ng/mL TGF-β, 5 μg/mL IL-4, 5 μg/mL IFN-γ and Treg; 0.5 ng/mL TGF-β, 5 μg/mL IL-4, 5 μg/mL IFN-γ) and are supplemented with IL2 as a growth factor.
# CD8+ T cells = test: CD8+ T cell viability on anti-TCR/anti-CD28 coated wells; format: cell-based; conditions: 4 days, neutral culture conditions
# Experimental: Total T cells were plated on anti-TCR and anti-CD28 coated wells in the presence of both BTK inhibitors. Neutral culture conditions were used that will not polarize T cells to a helper lineage. […] Statistical significance was calculated using the Mann Whitney T-test.
# [6] = tested on: CD8+ T cell function (B lymphoblast targets); test: Cytotoxic T cell (CTL) assay; format: cell-based; conditions: CTL generated 4 days with 500 nM inhibitor
# Experimental: Without being bound by any theory, CD8^+ T cells have two primary effector functions: (1) produce large amounts of IFN-γ (which activates macrophages), and (2) cytolytic activity. […] The targets were B lymphoblasts from lipopolysaccharide (LPS) treated cultures. The assay was performed by incubating different ratios of effectors:targets for 4 hours.
# [7] = tested on: GPVI platelet aggregation; test: GPVI (convulxin-induced) platelet aggregation; format: cell-based; conditions: human platelets
# Experimental: In FIG. 67, the results of CVX-induced (250 ng/mL) human platelet aggregation results before and 15 minutes after administration of the BTK inhibitors to 6 healthy individuals are shown.
# hematologic malignancies = conditions: cited from earlier work
compound,measurement,setting,value
rituximab: anti-CD20 antibody (Genentech),increase in cell lysis over natural cytotoxicity,"[1]; rituximab 0.1 and 1 μg/mL, healthy donor NK cells, Raji cells",5- to 8 fold
"C=CC(=O)Nc1cccc(Nc2nc(Nc3ccc(OCCOC)cc3)ncc2F)c1 [Formula (17), N-(3-((5-fluoro-2-((4-(2-methoxyethoxy)phenyl)amino)pyrimidin-4-yl)amino)phenyl)acrylamide, reference compound]",effect on human platelet-mediated thrombus formation,[2],effect similar to Formula (10) (ibrutinib)
"PF-05082566: 4-1BB agonist monoclonal antibody from Pfizer; heavy chain SEQ ID NO:435, light chain SEQ ID NO:436",peripheral blood B cell numbers,peripheral blood B cell,either unchanged or decreased
"C=CC(=O)N1CCC[C@@H](n2nc(-c3ccc(Oc4ccccc4)cc3)c3c(N)ncnc32)C1 [Formula (10), 1-[(3R)-3-[4-amino-3-(4-phenoxyphenyl)-1H-pyrazolo[3,4-d]pyrimidin-1-yl]piperidin-1-yl]prop-2-en-1-one, reference compound]",antibody-dependent NK cell-mediated cytotoxicity (percent lysis),Raji cell line,antagonizes antibody-dependent NK cell-mediated cytotoxicity
same,CD8+ T cell function as % cytotoxicity,CD8+ T cell [3],affects CD8^+ T cell function as measured by % cytotoxicity
same,CD8+ T cell function as IFN-γ level,CD8+ T cell [4],affects CD8^+ T cell function as measured by IFN-γ level
same,IC50,[5],130 nM
same,"effect on rituximab-mediated ADCC, Raji cells","[1]; 1 μM, NK cells, E:T 25:1",strongly inhibited
same,Th17 development,Th17 and Treg cells,profound inhibition
same,Treg development,Th17 and Treg cells,increase
same,CD8+ T cell viability,CD8+ T cells,"strong, negative effect"
same,CD8+ T cell function as % cytotoxicity,[6],affects CD8^+ T cell function
same,CD8+ T cell function as IFN-γ levels,[6],significant loss of function
same,GPVI platelet aggregation,[7],significantly inhibits
same,antitumor activity,hematologic malignancies; subjects with heavily pretreated non-Hodgkin lymphoma,substantial antitumor activity
same,maximum tolerated dose (MTD),hematologic malignancies; within the tested dose range (through 840 mg),No maximum tolerated dose (MTD) was apparent

# Source: US20190022092A1, “Therapeutic Combinations of a BTK Inhibitor and a GITR Binding Molecule, a 4-1BB Agonist, or an OX40 Agonist” (Acerta Pharma B.V., priority 2015, published 2019)
